Experiments:
Type in all cases: in vivo
[1] = system: pigweed (Amaranthus retroflexus); experiment: Test C preemergence
From the text: (§1) Seeds of plant species selected from bermudagrass (Cynodon dactylon), Surinam grass (Brachiaria decumbens), cocklebur (Xanthium strumarium), corn (Zea mays), crabgrass (Digitaria sanguinalis), woolly cupgrass (Eriochloa villosa), giant foxtail (Setaria faberii), goosegrass (Eleusine indica), johnsongrass (Sorghum halepense), kochia (Kochia scoparia), lambsquarters (Chenopodium album), morningglory (Ipomoea hederacea), yellow nutsedge (Cyperus esculentus), pigweed (Amaranthus retroflexus), common ragweed (Ambrosia elatior), soybean (Glycine max) and velvetleaf (Abutilon theophrasti) were planted and treated preemergence with test chemicals formulated in a non-phytotoxic solvent mixture which included a surfactant.
(§2) At the same time, plants selected from these crop and weed species and also winter barley (Hordeum vulgare), blackgrass (Alopecurus myosuroides), canary grass (Phalaris minor), chickweed (Stellaria media), downy brome (Bromus tectorum), green foxtail (Setaria viridis), Italian ryegrass (Lolium multiflorum), wheat (Triticum aestivum), wild oat (Avena fatua) and windgrass (Apera spica-venti) were treated with postemergence applications of some of the test chemicals formulated in the same manner. Plants ranged in height from 2 to 18 cm (1- to 4-leaf stage) for postemergence treatments. Plant species in the flooded paddy test consisted of rice (Oryza saliva), smallflower flatsedge (Cyperus difformis), duck salad (Heteranthera limosa) and barnyardgrass (Echinochloa crus-galli) grown to the 2-leaf stage for testing. Treated plants and controls were maintained in a greenhouse for 12 to 14 days, after which time all species were compared to controls and visually evaluated. Plant response ratings, summarized in Table C, are based on a scale of 0 to 100 where 0 is no effect and 100 is complete control. A dash (-) response means no test result.

[2] = system: cocklebur (Xanthium strumarium); experiment: Test C preemergence
From the text: as §1, §2

[3] = system: woolly cupgrass (Eriochloa villosa); experiment: Test C preemergence
From the text: as §1, §2

[4] = system: morningglory (Ipomoea hederacea); experiment: Test C preemergence
From the text: as §1, §2

[5] = system: Surinam grass (Brachiaria decumbens); experiment: Test C preemergence
From the text: as §1, §2

[6] = system: johnsongrass (Sorghum halepense); experiment: Test C preemergence
From the text: as §1, §2

[7] = system: yellow nutsedge (Cyperus esculentus); experiment: Test C preemergence
From the text: as §1, §2

[8] = system: bermudagrass (Cynodon dactylon); experiment: Test C preemergence
From the text: as §1, §2

[9] = system: goosegrass (Eleusine indica); experiment: Test C preemergence
From the text: as §1, §2

[10] = system: corn (Zea mays); experiment: Test C preemergence
From the text: as §1, §2

[11] = system: soybean (Glycine max); experiment: Test C preemergence
From the text: as §1, §2

[12] = system: lambsquarters (Chenopodium album); experiment: Test C preemergence
From the text: as §1, §2

[13] = system: kochia (Kochia scoparia); experiment: Test C preemergence
From the text: as §1, §2

[14] = system: Nightshade; experiment: Test C preemergence
From the text: as §1, §2

[15] = system: giant foxtail (Setaria faberii); experiment: Test C preemergence
From the text: as §1, §2

[16] = system: velvetleaf (Abutilon theophrasti); experiment: Test C preemergence
From the text: as §1, §2

[17] = system: Sunflower; experiment: Test C preemergence; settings: scale 0 to 100, 0 no effect, 100 complete control
From the text: as §1, §2

[18] = system: common ragweed (Ambrosia elatior); experiment: Test C preemergence
From the text: as §1, §2

[19] = system: crabgrass (Digitaria sanguinalis); experiment: Test C preemergence
From the text: as §1, §2

[20] = system: barnyardgrass (Echinochloa crus-galli); experiment: Test C flooded paddy test; settings: for Barnyardgrass plant response rating: Flooded Paddy, scale 0 to 100, 0 no effect, 100 complete control; for Plant response rating, Barnyardgrass: flooded paddy test, scale 0 to 100 (0 no effect, 100 complete control)
In short: (§3)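 2-leaf-stage plants, flooded paddy; treated; greenhouse 12–14 days; compared with controls by eye; rated 0–100 (0 none, 100 complete control).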

[21] = system: rice (Oryza saliva); experiment: Test C flooded paddy test; settings: for Rice plant response rating: Flooded Paddy, scale 0 to 100, 0 no effect, 100 complete control; for Plant response rating, Rice: flooded paddy test, scale 0 to 100 (0 no effect, 100 complete control)
In short: as §3

[22] = Rate 62 g/ha, scale 0 to 100, 0 no effect, 100 complete control
[23] = preemergence, Rate 16 g/ha, scale 0 to 100
[24] = preemergence, Rate 31 g/ha, scale 0 to 100
[25] = preemergence, Rate 125 g/ha, scale 0 to 100, 0 no effect, 100 complete control
[26] = Rate 62 g/ha; scale 0 to 100, 0 no effect, 100 complete control
[27] = Rate 125 g/ha, scale 0 to 100, 0 no effect, 100 complete control
[28] = preemergence, Rate 250 g/ha, scale 0 to 100, 0 no effect, 100 complete control
[29] = preemergence, Rate 250 g/ha, visual evaluation after 12 to 14 days

Structure (SMILES): CC(C)(C)c1ccn(C2CCN(c3cccc(Cl)c3)C2=O)n1 (stereo not drawn) [Compound 43]
- Plant response rating, Pigweed [1, 22]: 100
- Plant response rating, Pigweed [1, 23]: 20
- Plant response rating, Pigweed [1, 24]: 100
- Plant response rating, Pigweed [1, 25]: 0
- Plant response rating, Cocklebur [2, 22]: 100
- Plant response rating, Cocklebur [2, 23]: 0
- Plant response rating, Cocklebur [2, 24]: 20
- Plant response rating, Cocklebur [2, 25]: 100
- Plant response rating, Cupgrass, Woolly [3, 22]: 30
- Plant response rating, Cupgrass, Woolly [3, 23]: 0
- Plant response rating, Cupgrass, Woolly [3, 24]: 0
- Plant response rating, Cupgrass, Woolly [3, 25]: 30
- Plant response rating, Morningglory [4, 22]: 0
- Plant response rating, Morningglory [4, 23]: 0
- Plant response rating, Morningglory [4, 24]: 0
- Plant response rating, Morningglory [4, 25]: 0
- Plant response rating, Surinam grass [5, 22]: 0
- Plant response rating, Surinam grass [5, 23]: 0
- Plant response rating, Surinam grass [5, 24]: 0
- Plant response rating, Surinam grass [5, 25]: 0
- Plant response rating, Johnsongrass [6, 22]: 0
- Plant response rating, Johnsongrass [6, 23]: 0
- Plant response rating, Johnsongrass [6, 24]: 0
- Plant response rating, Johnsongrass [6, 25]: 50
- Plant response rating, Nutsedge [7, 22]: 0
- Plant response rating, Nutsedge [7, 23]: 0
- Plant response rating, Nutsedge [7, 24]: 0
- Plant response rating, Nutsedge [7, 25]: 30
- Plant response rating, Bermudagrass [8, 22]: 50
- Plant response rating, Bermudagrass [8, 23]: 20
- Plant response rating, Bermudagrass [8, 24]: 40
- Plant response rating, Bermudagrass [8, 25]: 60
- Plant response rating, Goosegrass [9, 22]: 50
- Plant response rating, Goosegrass [9, 23]: 0
- Plant response rating, Goosegrass [9, 24]: 0
- Plant response rating, Goosegrass [9, 25]: 90
- Plant response rating, Corn [10, 22]: 0
- Plant response rating, Corn [10, 23]: 0
- Plant response rating, Corn [10, 24]: 0
- Plant response rating, Corn [10, 25]: 0
- Plant response rating, Soybean [11, 22]: 0
- Plant response rating, Soybean [11, 23]: 0
- Plant response rating, Soybean [11, 24]: 0
- Plant response rating, Soybean [11, 25]: 40
- Plant response rating, Lambsquarters [12, 22]: 100
- Plant response rating, Lambsquarters [12, 23]: 100
- Plant response rating, Lambsquarters [12, 24]: 100
- Plant response rating, Lambsquarters [12, 25]: 100
- Plant response rating, Kochia [13, 22]: 90
- Plant response rating, Kochia [13, 23]: 20
- Plant response rating, Kochia [13, 24]: 70
- Plant response rating, Kochia [13, 25]: 100
- Plant response rating, Nightshade ([14]; Rate 16 g/ha, scale 0 to 100): 0
- Plant response rating, Nightshade ([14]; Rate 31 g/ha, scale 0 to 100): 0
- Plant response rating, Nightshade [14, 26]: 0
- Plant response rating, Nightshade [14, 27]: 0
- Plant response rating, Foxtail, Giant [15, 22]: 0
- Plant response rating, Foxtail, Giant [15, 23]: 0
- Plant response rating, Foxtail, Giant [15, 24]: 0
- Plant response rating, Foxtail, Giant [15, 25]: 0
- Plant response rating, Velvetleaf [16, 22]: 0
- Plant response rating, Velvetleaf [16, 23]: 0
- Plant response rating, Velvetleaf [16, 24]: 0
- Plant response rating, Velvetleaf [16, 25]: 0
- Plant response rating, Sunflower ([17]; Rate 62 g/ha): 0
- Plant response rating, Ragweed, Common [18, 22]: 0
- Plant response rating, Ragweed, Common [18, 23]: 0
- Plant response rating, Ragweed, Common [18, 24]: 0
- Plant response rating, Ragweed, Common [18, 25]: 30
- Plant response rating, Crabgrass [19, 22]: 40
- Plant response rating, Crabgrass [19, 23]: 0
- Plant response rating, Crabgrass [19, 24]: 20
- Plant response rating, Crabgrass [19, 25]: 90
- Barnyardgrass plant response rating ([20]; Rate 250 g/ha): 100
- Barnyardgrass plant response rating ([20]; Rate 500 g/ha): 100
- Plant response rating, Barnyardgrass ([20]; Rate 62 g/ha): 30
- Plant response rating, Barnyardgrass ([20]; Rate 125 g/ha): 80
- Rice plant response rating ([21]; Rate 250 g/ha): 0
- Rice plant response rating ([21]; Rate 500 g/ha): 30
- Plant response rating, Rice ([21]; Rate 62 g/ha): 0
- Plant response rating, Rice ([21]; Rate 125 g/ha): 0

Structure (SMILES): COC(=O)c1cccc(N2CCC(n3ccc(C(C)(C)C)n3)C2=O)c1 (stereo not drawn) [Compound 73]
- Plant response rating, Pigweed [1, 27]: 0
- Plant response rating, Pigweed [1, 24]: 0
- Plant response rating, Pigweed [1, 28]: 40
- Plant response rating, Cocklebur [2, 22]: 70
- Plant response rating, Cocklebur [2, 24]: 20
- Plant response rating (0 to 100), Cocklebur [2, 29]: 80
- Plant response rating, Cupgrass, Woolly [3, 22]: 60
- Plant response rating, Cupgrass, Woolly [3, 27]: 80
- Plant response rating, Cupgrass, Woolly [3, 24]: 20
- Plant response rating (0 to 100), Cupgrass, Woolly [3, 29]: 100
- Plant response rating, Morningglory [4, 22]: 30
- Plant response rating, Morningglory [4, 27]: 30
- Plant response rating, Morningglory [4, 24]: 30
- Plant response rating, Morningglory [4, 28]: 100
- Plant response rating, Surinam grass [5, 22]: 50
- Plant response rating, Surinam grass [5, 27]: 70
- Plant response rating, Surinam grass [5, 24]: 20
- Plant response rating (0 to 100), Surinam grass [5, 29]: 70
- Plant response rating, Johnsongrass [6, 22]: 20
- Plant response rating, Johnsongrass [6, 27]: 30
- Plant response rating, Johnsongrass [6, 24]: 0
- Plant response rating (0 to 100), Johnsongrass [6, 29]: 50
- Plant response rating, Nutsedge [7, 22]: 0
- Plant response rating, Nutsedge [7, 27]: 30
- Plant response rating, Nutsedge [7, 24]: 0
- Plant response rating, Nutsedge [7, 28]: 50
- Plant response rating, Bermudagrass [8, 22]: 70
- Plant response rating, Bermudagrass [8, 27]: 100
- Plant response rating, Bermudagrass [8, 24]: 60
- Plant response rating (0 to 100 where 0 is no effect and 100 is complete control), Bermudagrass [8, 29]: 100
- Plant response rating, Goosegrass [9, 22]: 80
- Plant response rating, Goosegrass [9, 27]: 100
- Plant response rating, Goosegrass [9, 24]: 60
- Plant response rating (0 to 100), Goosegrass [9, 29]: 100
- Plant response rating, Corn [10, 22]: 0
- Plant response rating, Corn [10, 27]: 0
- Plant response rating, Corn [10, 24]: 0
- Plant response rating (0 to 100), Corn [10, 29]: 0
- Plant response rating, Soybean [11, 27]: 40
- Plant response rating, Soybean [11, 24]: 0
- Plant response rating, Soybean [11, 28]: 70
- Plant response rating, Kochia [13, 22]: 80
- Plant response rating, Kochia [13, 27]: 100
- Plant response rating, Kochia [13, 24]: 20
- Plant response rating (0 to 100), Kochia [13, 29]: 100
- Plant response rating, Nightshade ([14]; Rate 31 g/ha, scale 0 to 100): 50
- Plant response rating, Nightshade [14, 26]: 60
- Plant response rating, Nightshade ([14]; Rate 125 g/ha; scale 0 to 100, 0 no effect, 100 complete control): 80
- Plant response rating, Nightshade ([14]; Rate 250 g/ha, scale 0 to 100, 0 no effect, 100 complete control): 100
- Plant response rating, Foxtail, Giant [15, 22]: 80
- Plant response rating, Foxtail, Giant [15, 27]: 100
- Plant response rating, Foxtail, Giant [15, 24]: 20
- Plant response rating (0 to 100), Foxtail, Giant [15, 29]: 100
- Plant response rating, Velvetleaf [16, 27]: 50
- Plant response rating, Velvetleaf [16, 24]: 20
- Plant response rating, Velvetleaf [16, 28]: 60
- Plant response rating, Sunflower ([17]; Rate 125 g/ha): 50
- Plant response rating, Ragweed, Common [18, 27]: 80
- Plant response rating, Ragweed, Common [18, 24]: 30
- Plant response rating, Ragweed, Common [18, 28]: 100
- Plant response rating, Crabgrass [19, 22]: 90
- Plant response rating, Crabgrass [19, 27]: 100
- Plant response rating, Crabgrass [19, 24]: 90
- Plant response rating (0 to 100), Crabgrass [19, 29]: 100
- Barnyardgrass plant response rating ([20]; Rate 250 g/ha): 100
- Barnyardgrass plant response rating ([20]; Rate 500 g/ha): 100
- Plant response rating, Barnyardgrass ([20]; Rate 62 g/ha): 30
- Plant response rating, Barnyardgrass ([20]; Rate 125 g/ha): 70
- Rice plant response rating ([21]; Rate 250 g/ha): 50
- Rice plant response rating ([21]; Rate 500 g/ha): 60
- Plant response rating, Rice ([21]; Rate 62 g/ha): 0
- Plant response rating, Rice ([21]; Rate 125 g/ha): 20

Source: patent publication US7138361B2, “Herbicidal heterocycles” (E. I. du Pont de Nemours and Company, priority 2000, dated 2006)
